What was measured:
[1] = tested on: Pah-mRNA; assay: Pah-mRNA expression in mouse liver by quantitative real-time PCR; type: in vivo; conditions: treated mice compared to controls, 10 days oral
Procedure: Animal experiments were performed by Beat Töny (University of Zurich Children's Hospital). 25 μl/day of 10% DMSO (Group 1, control) or the solutions of Compound 11 (Group 2) or Compound 13 (Group […]) were administered orally for 10 days to young adult C57BI/6 mice (all females) exactly 12 weeks old and with weight between 19 to 23 g were in each group, i.e. in Group 2 and 3 animals were given about 5.9 mg/kg/day. Five animals were treated in each group, and no weight change was experienced upon treatment, i.e. <5% change between start and end. Animals were sacrificed at day 10 of treatment, and their livers were sectioned in two frozen immediately in liquid nitrogen, then the frozen half-livers were sent to the Department of Biomedicine, University of Bergen in dry ice. […]
The concentration of soluble protein was about 35 mg/ml of liver extract, similar in each group. The hepatic PAH response to oral supplementation of DMSO and of Compounds 11, 13 in 10% DMSO was analyzed b determining: • i) PAH activity, as described, after removal of free amino acids and contaminants of low molecular weight by using Zebra™ Desalt Spin columns(Pierce). • ii) Pah-mRNA expression by quantitative real-time PCR analysis, performed as reported

[2] = tested on: PAH protein expressed in A293 cells; assay: Immunoreactive PAH protein (Western blot) in transfected A293 cells; type: cell-based, human; conditions: 40 μM compound, 24 h (FIG. 4B)
Procedure: Human embryonic kidney cells (A293; purchased from Invitrogen) were grown in Dulbecco's Modified Eagle's Medium (DMEM) containing 4.5 g/l glucose, 10% (v/v) fetal calf serum, 2 mM L-glutamine, 100 i.u./ml penicillin, 100 μg/ml streptomycin and 0.25 mg/ml G-418. A293 cells were transiently transfected with 1 μg of pcDNA3-PAH expression vector (wt or mutant PAH constructs), using the lipofectamine system (Gibco, Invitrogen) as described by the manufacturer. Pharmacological chaperones were added after 5 h of transfection (final concentration 40 μM ligand in DMSO 1%), incubated for 24 h and cells were then harvested and stored at −80° C. […]
Western blot analyses were performed after SDS-PAGE (10% acrylamide) using as primary antibody a monoclonal mouse ant-human PAH (Chemicon, Australia) and as secondary antibody a goat anti-mouse HRP conjugate (Bio-Rad, US). Detection was performed using a chemiluminiscence method (ECL; Amersham Biosciences) and quantified an a Fluor-S™ Multilmager (Bio-Rad, US) using Quantify one v. […]
After transfection of A293 cells with constructs carrying wt-PAH and PKU mutants cDNA, the cells were incubated for 24 h in the presence or absence of 40 μM of hit compounds 11 and 13. Cell were harvested and immunoreactive PAH protein and PAH activity were measured in soluble cell extracts. […]

What does the source list for `Nc1c(-c2ccc3ccccc3n2)c2ccc([N+](=O)[O-])cc2c(=O)n1Cc1ccccc1` [Compound 11, 3-amino-2-benzyl-7-nitro-4-(2-quinolyl)-1,2-dihydroisoquinolin-1-one]?
Pah-mRNA expression [1]: No change; PAH immunoreactive protein [2]: increase in PAH immunoreactive protein was observed

— patent publication US8338423B2, “Compositions for the treatment of hyperphenylalaninemia” (Universidad de Zaragoza, priority 2007, dated 2012)
